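Exposure lasted 48 hours, with cells grown in 96-well plates and compounds tested at five concentrations. GI50 is the concentration that inhibits growth by half. The concentration for full growth arrest is given as TGI.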
Columns and labels:
Assay in all cases: NCI-60 cell line screen, 48 h
T-47D breast = tested on: T-47D breast
HCT-15 colon = tested on: HCT-15 colon
UACC-257 melanoma = tested on: UACC-257 melanoma
MDA-MB-435 = tested on: MDA-MB-435
PC-3 prostate = tested on: PC-3 prostate
SF-295 CNS = tested on: SF-295 CNS
KM12 colon = tested on: KM12 colon
A549 NSCLC = tested on: A549 NSCLC
DU-145 prostate = tested on: DU-145 prostate
NCI-H460 lung = tested on: NCI-H460 lung
TK-10 renal = tested on: TK-10 renal
NCI-H23 lung = tested on: NCI-H23 lung
CAKI-1 renal = tested on: CAKI-1 renal
MCF7 breast = tested on: MCF7 breast
SNB-75 CNS = tested on: SNB-75 CNS
SF-539 CNS = tested on: SF-539 CNS
OVCAR-5 ovarian = tested on: OVCAR-5 ovarian
SN12C renal = tested on: SN12C renal
NCI/ADR-RES ovarian = tested on: NCI/ADR-RES ovarian
HOP-62 NSCLC = tested on: HOP-62 NSCLC
MALME-3M melanoma = tested on: MALME-3M melanoma
RPMI-8226 leukemia = tested on: RPMI-8226 leukemia
BT-549 breast = tested on: BT-549 breast
NCI-H226 lung = tested on: NCI-H226 lung
COLO 205 colon = tested on: COLO 205 colon
SK-MEL-5 melanoma = tested on: SK-MEL-5 melanoma
OVCAR-4 ovarian = tested on: OVCAR-4 ovarian
K-562 leukemia = tested on: K-562 leukemia
CCRF-CEM leukemia = tested on: CCRF-CEM leukemia
HT29 colon = tested on: HT29 colon
UACC-62 melanoma = tested on: UACC-62 melanoma
NCI-H522 lung = tested on: NCI-H522 lung
SK-MEL-28 melanoma = tested on: SK-MEL-28 melanoma
SF-268 CNS = tested on: SF-268 CNS
LOX IMVI melanoma = tested on: LOX IMVI melanoma
SW-620 colon = tested on: SW-620 colon
ACHN renal = tested on: ACHN renal
EKVX NSCLC = tested on: EKVX NSCLC
HS 578T breast = tested on: HS 578T breast
786-0 renal = tested on: 786-0 renal
OVCAR-8 ovarian = tested on: OVCAR-8 ovarian
HCT-116 colon = tested on: HCT-116 colon
OVCAR-3 ovarian = tested on: OVCAR-3 ovarian
HCC-2998 colon = tested on: HCC-2998 colon
HOP-92 NSCLC = tested on: HOP-92 NSCLC
SK-OV-3 ovarian = tested on: SK-OV-3 ovarian
SK-MEL-2 melanoma = tested on: SK-MEL-2 melanoma
UO-31 renal = tested on: UO-31 renal
SR leukemia = tested on: SR leukemia
U251 CNS = tested on: U251 CNS
MDA-MB-231 breast = tested on: MDA-MB-231 breast
M14 melanoma = tested on: M14 melanoma
MOLT-4 leukemia = tested on: MOLT-4 leukemia
A498 renal = tested on: A498 renal
RXF 393 renal = tested on: RXF 393 renal
IGROV1 ovarian = tested on: IGROV1 ovarian
SNB-19 CNS = tested on: SNB-19 CNS
HL-60(TB) leukemia = tested on: HL-60(TB) leukemia

In the case of `COc1cc(C(=O)NC2c3ccccc3-c3ccccc32)c(N)cc1OCc1ccccc1`, the GI50 (T-47D breast) is reported as 29.5 µM, the TGI (T-47D breast) is reported as greater than 100 µM and the GI50 (HCT-15 colon) is reported as greater than 74.8 µM. For the same compound, the TGI (HCT-15 colon) was greater than 100 µM, the GI50 (UACC-257 melanoma) was 58.7 µM and the TGI (UACC-257 melanoma) was greater than 100 µM. For the same compound, the GI50 (MDA-MB-435) was greater than 100 µM, the TGI (MDA-MB-435) was greater than 100 µM and the GI50 (PC-3 prostate) was 27.5 µM. For the same compound, the TGI (PC-3 prostate) was greater than 66.1 µM, the GI50 (SF-295 CNS) was 15.4 µM and the TGI (SF-295 CNS) was 41 µM. It also gave a GI50 (KM12 colon) greater than 100 µM, a TGI (KM12 colon) greater than 100 µM and a GI50 (A549 NSCLC) of 17.9 µM. It also gave a TGI (A549 NSCLC) greater than 100 µM, a GI50 (DU-145 prostate) of 2870 nM and a TGI (DU-145 prostate) greater than 100 µM. For the same compound, the GI50 (NCI-H460 lung) was 35.1 µM, the TGI (NCI-H460 lung) was greater than 100 µM and the GI50 (TK-10 renal) was 26.2 µM. The TGI (TK-10 renal) was 69.6 µM, the GI50 (NCI-H23 lung) was 30.6 µM and the TGI (NCI-H23 lung) was greater than 100 µM. For the same compound, the GI50 (CAKI-1 renal) was 16.1 µM, the TGI (CAKI-1 renal) was 63.8 µM and the GI50 (MCF7 breast) was 42.8 µM. It also gave a TGI (MCF7 breast) greater than 100 µM, a GI50 (SNB-75 CNS) of 7.84 µM and a TGI (SNB-75 CNS) of 30.7 µM. The GI50 (SF-539 CNS) was 11.8 µM, the TGI (SF-539 CNS) was 28.3 µM and the GI50 (OVCAR-5 ovarian) was 52.5 µM. For the same compound, the TGI (OVCAR-5 ovarian) was greater than 100 µM, the GI50 (SN12C renal) was 11.4 µM and the TGI (SN12C renal) was 48.9 µM. The GI50 (NCI/ADR-RES ovarian) was 35.3 µM, the TGI (NCI/ADR-RES ovarian) was greater than 100 µM and the GI50 (HOP-62 NSCLC) was 10.6 µM. The TGI (HOP-62 NSCLC) was 38.4 µM, the GI50 (MALME-3M melanoma) was 26.6 µM and the TGI (MALME-3M melanoma) was greater than 76.6 µM. The GI50 (RPMI-8226 leukemia) was 97.5 µM, the TGI (RPMI-8226 leukemia) was greater than 100 µM and the GI50 (BT-549 breast) was 17 µM. For the same compound, the TGI (BT-549 breast) was 42.2 µM, the GI50 (NCI-H226 lung) was 11.4 µM and the TGI (NCI-H226 lung) was 44.3 µM. For the same compound, the GI50 (COLO 205 colon) was 63.9 µM, the TGI (COLO 205 colon) was greater than 100 µM and the GI50 (SK-MEL-5 melanoma) was 27.5 µM. It also gave a TGI (SK-MEL-5 melanoma) greater than 100 µM, a GI50 (OVCAR-4 ovarian) of 5.16 µM and a TGI (OVCAR-4 ovarian) of 32.2 µM. It also gave a GI50 (K-562 leukemia) of 15.9 µM, a TGI (K-562 leukemia) greater than 100 µM and a GI50 (CCRF-CEM leukemia) greater than 100 µM. For the same compound, the TGI (CCRF-CEM leukemia) was greater than 100 µM, the GI50 (HT29 colon) was 69.7 µM and the TGI (HT29 colon) was greater than 100 µM. The GI50 (UACC-62 melanoma) was 20.1 µM, the TGI (UACC-62 melanoma) was 67.5 µM and the GI50 (NCI-H522 lung) was 34.7 µM. It also gave a TGI (NCI-H522 lung) greater than 100 µM, a GI50 (SK-MEL-28 melanoma) of 25.2 µM and a TGI (SK-MEL-28 melanoma) greater than 92.7 µM. The GI50 (SF-268 CNS) was 16.8 µM, the TGI (SF-268 CNS) was greater than 62.1 µM and the GI50 (LOX IMVI melanoma) was 63.6 µM. It also gave a TGI (LOX IMVI melanoma) greater than 100 µM, a GI50 (SW-620 colon) of 66.4 µM and a TGI (SW-620 colon) greater than 100 µM. For the same compound, the GI50 (ACHN renal) was 23 µM, the TGI (ACHN renal) was greater than 92.3 µM and the GI50 (EKVX NSCLC) was 5.28 µM. The TGI (EKVX NSCLC) was 45 µM, the GI50 (HS 578T breast) was 14.5 µM and the TGI (HS 578T breast) was 79.1 µM. For the same compound, the GI50 (786-0 renal) was 21.4 µM, the TGI (786-0 renal) was greater than 60.8 µM and the GI50 (OVCAR-8 ovarian) was 24.2 µM. For the same compound, the TGI (OVCAR-8 ovarian) was greater than 100 µM, the GI50 (HCT-116 colon) was 20.3 µM and the TGI (HCT-116 colon) was greater than 82.7 µM. The GI50 (OVCAR-3 ovarian) was 24.2 µM, the TGI (OVCAR-3 ovarian) was greater than 87.3 µM and the GI50 (HCC-2998 colon) was greater than 100 µM. It also gave a TGI (HCC-2998 colon) greater than 100 µM, a GI50 (HOP-92 NSCLC) of 14.2 µM and a TGI (HOP-92 NSCLC) of 33.6 µM. For the same compound, the GI50 (SK-OV-3 ovarian) was 16.9 µM, the TGI (SK-OV-3 ovarian) was 43.8 µM and the GI50 (SK-MEL-2 melanoma) was 33.7 µM. It also gave a TGI (SK-MEL-2 melanoma) of 98.9 µM, a GI50 (UO-31 renal) of 30.2 µM and a TGI (UO-31 renal) greater than 100 µM. For the same compound, the GI50 (SR leukemia) was 98.6 µM, the TGI (SR leukemia) was greater than 100 µM and the GI50 (U251 CNS) was 14.4 µM. It also gave a TGI (U251 CNS) of 34.7 µM, a GI50 (MDA-MB-231 breast) of 17.2 µM and a TGI (MDA-MB-231 breast) of 47.1 µM. For the same compound, the GI50 (M14 melanoma) was 47 µM, the TGI (M14 melanoma) was greater than 100 µM and the GI50 (MOLT-4 leukemia) was greater than 78.4 µM. It also gave a TGI (MOLT-4 leukemia) greater than 100 µM, a GI50 (A498 renal) of 37 µM and a TGI (A498 renal) greater than 100 µM. It also gave a GI50 (RXF 393 renal) of 13.5 µM, a TGI (RXF 393 renal) of 34.7 µM and a GI50 (IGROV1 ovarian) of 34.3 µM. For the same compound, the TGI (IGROV1 ovarian) was greater than 100 µM, the GI50 (SNB-19 CNS) was 22.6 µM and the TGI (SNB-19 CNS) was 58 µM. It also gave a GI50 (HL-60(TB) leukemia) greater than 71.7 µM and a TGI (HL-60(TB) leukemia) greater than 100 µM.

— PubChem BioAssay (NCI)
